Data taken from patent US7176224B2, “Oxazolyl-aryloxyacetic acid derivatives and their use as PPAR agonists” (Eli Lilly and Company, priority 2000, dated 2007).

What was measured:
Hu apoAI transgenic mice = test: Evaluation of triglyceride and cholesterol levels in hu apoAI transgenic mice; assay type: in vivo
Procedure: Five to six week old male mice, transgenic for human apoAI [C57B1/6-tgn(apoa1) 1rub, Jackson Laboratory, Bar Harbor, Me.] were housed five per cage (10″×20″8″ with aspen chip bedding) with food (Purina 5001) and water available at all times. After an acclimation period of 2 weeks, animals were individually identified by ear notches, weighed, and assigned to groups based on body weight. Beginning the following morning, mice were dosed daily by oral gavage for 7 days using a 20 gauge, 1½″ curved disposable feeding needle (Popper & Sons). Treatments were test compounds (30 mg/kg), a positive control (fenofibrate, 100 mg/kg) or vehicle [1% carboxymethylcellulose (w/v)/0.25% Tween80 (w/v); 0.2 ml/mouse]. Prior to termination on day 7, mice were weighed and dosed. Three hours after dosing, animals were anesthetized by inhalation of isoflurane (2–4%; Abbott Laboratories, Chicago, Ill.) and blood obtained via cardiac puncture (0.7–1.0 ml). Whole blood was transferred to serum separator tubes (Vacutainer SST), chilled on ice, and permitted to clot. Serum was obtained after centrifugation at 4° C. and frozen until analysis for triglycerides, total cholesterol, compound levels, and serum lipoprotein profile by fast protein liquid chromatography (FPLC) coupled to an inline detection system. After sacrifice by cervical dislocation, the liver, heart and epididymal fat pads were excised and weighed.
The animals dosed with vehicle had average triglycerides values of 60–80 mg/dl, which were reduced by the positive control fenofibrate (33–58 mg/dl with a mean reduction of 37%). The animals dosed with vehicle had average total serum cholesterol values of 140–180 mg/dl, which were increased by fenofibrate (190–280 mg/dl, with a mean elevation of 41%). […] increased the amount of HDLc (68–96 v-sec with a mean percent increase of 48%).
Glucose was measured colorimetrically using commercially purchased reagents (Sigma #315-500). According to the manufacturers, the procedures were modified from published work (McGowan, M. W., Artiss, J. D., Strandbergh, D. R. & Zak, B. Clin Chem, 20:470–5 (1974) and Keston, A. Specific colorimetric enzymatic analytical reagents for glucose. Abstract of papers 129th Meeting ACS, 31C (1956).); and depend on the release of a mole of hydrogen peroxide for each mole of analyte, coupled with a color reaction first described by Trinder (Trinder, P. Determination of glucose in blood using glucose oxidase with an alternative oxygen acceptor. Ann Clin Biochem, 6:24 (1969)). The absorbance of the dye produced is linearly related to the analyte in the sample. The assays were further modified in our laboratory for use in a 96 well format. Standards (Sigma #339-11, Sigma #16-11, and Sigma #CC0534 for glucose, triglycerides and total cholesterol, respectively), quality control plasma (Sigma # A2034), and samples (2 or 5 μl/well) were measured in duplicate using 200 μl of reagent. An additional aliquot of sample, pipetted to a third well and diluted in 200 μl water, provided a blank for each specimen. Plates were incubated at room temperature (18, 15, and 10 minutes for glucose, triglycerides and total cholesterol, respectively) on a plate shaker (DPC Micormix 5) and absorbance read at 500 nm (glucose and total cholesterol) or 540 nm (triglycerides) on a plate reader (Wallac Victor 1420). Sample absorbances were compared to a standard curve (100–800, 10–500, and 100–400 mg/dl for glucose, triglycerides and total cholesterol, respectively). Values for the quality control sample were always within the expected range and the coefficient of variation for samples was below 10%. All samples from an experiment were assayed at the same time to minimize inter-assay variability.
Serum lipoproteins were separated and cholesterol quantitated with an in-line detection system. Sample was applied to a Superose® 6 HR 10/30 size exclusion column (Amersham Pharmacia Biotech) and eluted with phosphate buffered saline-EDTA at 0.5 ml/min. […]

huPPARα [1] = target: T1, huPPARα (Homo sapiens, UniProt Q07869); test: DNA-dependent binding (ABCD binding), SPA, radioligand displacement; conditions: tritium-labeled PPARα agonist radioligand
T1 sequence (Q07869 1-468): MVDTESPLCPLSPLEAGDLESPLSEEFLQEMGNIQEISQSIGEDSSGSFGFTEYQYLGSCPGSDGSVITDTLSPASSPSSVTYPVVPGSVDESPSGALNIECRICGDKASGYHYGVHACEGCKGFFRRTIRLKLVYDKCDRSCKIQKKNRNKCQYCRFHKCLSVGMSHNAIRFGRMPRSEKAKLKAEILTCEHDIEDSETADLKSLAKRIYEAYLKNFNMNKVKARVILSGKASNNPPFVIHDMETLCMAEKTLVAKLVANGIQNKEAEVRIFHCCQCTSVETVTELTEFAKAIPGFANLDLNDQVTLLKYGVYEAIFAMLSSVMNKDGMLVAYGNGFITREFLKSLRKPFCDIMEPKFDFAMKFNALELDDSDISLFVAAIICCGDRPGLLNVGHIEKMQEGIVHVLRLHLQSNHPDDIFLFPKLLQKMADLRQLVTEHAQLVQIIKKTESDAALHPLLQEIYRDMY
T1 sequence (P19793 1-462 partner): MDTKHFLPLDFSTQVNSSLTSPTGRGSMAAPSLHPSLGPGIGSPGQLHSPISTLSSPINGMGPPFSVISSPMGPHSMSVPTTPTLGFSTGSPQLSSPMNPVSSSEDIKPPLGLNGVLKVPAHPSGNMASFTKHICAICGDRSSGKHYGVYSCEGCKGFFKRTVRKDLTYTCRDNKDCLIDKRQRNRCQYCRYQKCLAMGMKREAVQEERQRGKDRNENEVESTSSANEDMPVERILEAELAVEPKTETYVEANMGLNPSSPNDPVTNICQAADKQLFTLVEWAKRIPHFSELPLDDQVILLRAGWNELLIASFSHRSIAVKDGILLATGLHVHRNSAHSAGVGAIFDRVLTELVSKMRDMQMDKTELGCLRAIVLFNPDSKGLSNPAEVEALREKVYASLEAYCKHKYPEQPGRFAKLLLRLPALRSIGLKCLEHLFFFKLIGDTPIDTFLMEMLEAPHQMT
Procedure: (§1) […] binding (ABCD binding) was carried out using SPA technology with PPAR receptors. Tritium-labeled PPARα and PPARγ agonists were used as radioligands for generating displacement curves and IC50 values with compounds of the invention. Cotransfection assays were carried out in CV-1 cells. The reporter plasmid contained an acylCoA oxidase (AOX) PPRE and TK promoter upstream of the luciferase reporter cDNA. Appropriate PPARs and RXRα were constitutively expressed using plasmids containing the CMV promoter. […] In order to eliminate such interference, a GAL4 chimeric system was used in which the DNA binding domain of the transfected PPAR was replaced by that of GAL4, and the GAL4 response element was utilized in place of the AOX PPRE. Cotransfection efficacy was determined relative to PPARα agonist and PPARβ agonist reference molecules. Efficacies were determined by computer fit to a concentration-response curve, or in some cases at a single high concentration of agonist (10 μM). For binding or cotransfection studies with receptors other than PPARs, similar assays were carried out using appropriate ligands, receptors, reporter constructs, etc., for that particular receptor.
(§2) These studies were carried out to evaluate the ability of compounds of the invention to bind to and/or activate various nuclear transcription factors, particularly huPPARα (“hu” indicates “human”) and huPPARγ. These studies provide in vitro data concerning efficacy and selectivity of compounds of the invention. Furthermore, binding and cotransfection data for compounds of the invention were compared with corresponding data for marketed compounds that act on either huPPARα or huPPARγ.

huPPARγ [2] = target: T2, huPPARγ (Homo sapiens, UniProt P37231); test: as above; conditions: tritium-labeled PPARγ agonist radioligand
T2 sequence (P37231 1-505): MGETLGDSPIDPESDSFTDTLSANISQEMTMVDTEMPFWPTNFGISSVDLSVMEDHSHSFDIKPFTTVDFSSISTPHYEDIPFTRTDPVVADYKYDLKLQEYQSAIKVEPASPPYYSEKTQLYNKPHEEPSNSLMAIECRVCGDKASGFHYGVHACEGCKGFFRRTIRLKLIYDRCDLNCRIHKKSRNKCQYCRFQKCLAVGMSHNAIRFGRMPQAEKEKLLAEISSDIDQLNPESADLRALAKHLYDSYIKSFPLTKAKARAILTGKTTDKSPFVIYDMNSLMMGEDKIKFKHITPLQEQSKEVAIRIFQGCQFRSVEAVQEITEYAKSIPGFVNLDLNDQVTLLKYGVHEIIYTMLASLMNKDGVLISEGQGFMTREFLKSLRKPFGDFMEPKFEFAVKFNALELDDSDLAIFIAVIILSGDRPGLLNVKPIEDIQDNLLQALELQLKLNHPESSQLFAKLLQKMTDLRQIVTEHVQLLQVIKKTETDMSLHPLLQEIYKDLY
T2 sequence (P19793 1-462 partner): T1 sequence (P19793 1-462 partner)
Procedure: as §1, §2

huPPARα [3] = test: Cotransfection assay in CV-1 cells, luciferase reporter; assay type: cell-based, human; conditions: GAL4 chimeric system, relative to PPARα agonist reference molecule
Procedure: […] binding (ABCD binding) was carried out using SPA technology with PPAR receptors. Tritium-labeled PPARα and PPARγ agonists were used as radioligands for generating displacement curves and IC50 values with compounds of the invention. Cotransfection assays were carried out in CV-1 cells. The reporter plasmid contained an acylCoA oxidase (AOX) PPRE and TK promoter upstream of the luciferase reporter cDNA. Appropriate PPARs and RXRα were constitutively expressed using plasmids containing the CMV promoter. For PPARα and […], interference by endogenous […] in CV-1 cells was an issue. In order to eliminate such interference, a GAL4 chimeric system was used in which the DNA binding domain of the transfected PPAR was replaced by that of GAL4, and the GAL4 response element was utilized in place of the AOX PPRE. Cotransfection efficacy was determined relative to PPARα agonist and […] reference molecules. Efficacies were determined by computer fit to a concentration-response curve, or in some cases at a single high concentration of agonist (10 μM). For binding or cotransfection studies with receptors other than PPARs, similar assays were carried out using appropriate ligands, receptors, reporter constructs, etc., for that particular receptor.
as §2

huPPARγ [4] = test: as above; assay type: cell-based, human; conditions: GAL4 chimeric system, relative to agonist reference molecule
Procedure: as §1, with “Tritium-labeled PPARα and PPARγ agonists were used as radioligands for generating displacement curves and IC50 values with compounds of the invention.” left out, “Cotransfection efficacy was determined relative to PPARα agonist and PPARβ agonist reference molecules.” left out
as §2

[5] = 100 mg/kg oral gavage daily for 7 days, versus vehicle

SMILES | IC50 (huPPARα [1]) | IC50 (huPPARγ [2]) | huPPARα CTF Efficacy (huPPARα [3]) | huPPARγ CTF Efficacy (huPPARγ [4]) | also measured
Cc1oc(-c2cccc(-c3ccsc3)c2)nc1CCOc1ccc(CC(C)(Oc2ccc(C(C)(C)C)cc2)C(=O)O)cc1 (centres unmarked) [Example 19, 2-Methyl-3-(4-{2-[5-methyl-2-(3-thiophen-3-yl-phenyl)-oxazol-4-yl]-ethoxy}-phenyl)-2-(4-tert-butylphenoxy)-propionic acid] | – | – | – | – | % HDLc Increase (Hu apoAI transgenic mice; 30 mg/kg oral gavage daily for 7 days, serum HDLc FPLC area under the curve, over mice receiving vehicle): 85.3%
Cc1cccc(OC(C)(Cc2ccc(OCCc3nc(-c4cccc(-c5ccccc5)c4)oc3C)cc2)C(=O)O)c1 (centres unmarked) [Example 48, 3-{4-[2-(2-Biphenyl-3-yl-5-methyl-oxazol-4-yl)-ethoxy]-phenyl}-2-methyl-2-m-tolyloxy-propionic acid] | 182 nM | 54 nM | 45% | 145% | –
Cc1oc(-c2cccc(-c3ccccc3)c2)nc1CCOc1ccc(CC(C)(Oc2ccc(F)cc2)C(=O)O)cc1 (centres unmarked) [Example 51, 3-{4-[2-(2-Biphenyl-3-yl-5-methyl-oxazol-4-yl)-ethoxy]-phenyl}-2-(4-fluoro-phenoxy)-2-methyl-propionic acid] | 203 nM | 56 nM | 43% | 160% | –
COc1cccc(OC(C)(Cc2ccc(OCCc3nc(-c4ccc(-c5ccccc5)cc4)oc3C)cc2)C(=O)O)c1 (centres unmarked) [Example 56, 3-{4-[2-(2-Biphenyl-4-yl-5-methyl-oxazol-4-yl)-ethoxy]-phenyl}-2-(3-methoxy-phenoxy)-2-methyl-propionic acid] | 613 nM | 99 nM | 70% | 88% | –
Cc1oc(-c2cccc(-c3ccccc3)c2)nc1CCOc1ccc(CC(C)(Oc2ccc3c(c2)OCO3)C(=O)O)cc1 (centres unmarked) [Example 58, 2-(Benzo[1,3]dioxol-5-yloxy)-3-{4-[2-(2-biphenyl-3-yl-5-methyl-oxazol-4-yl)-ethoxy]-phenyl}-2-methyl-propionic acid] | 145 nM | 37 nM | 48% | 101% | –
CC(C)OC(=O)C(C)(C)Oc1ccc(C(=O)c2ccc(Cl)cc2)cc1 [fenofibrate] | – | – | – | – | high density lipoprotein cholesterol (HDLc) peak area (Hu apoAI transgenic mice; 100 mg/kg oral gavage daily for 7 days, pooled sera, FPLC, vehicle 47 to 62 v-sec): 68–96 v-sec; average triglycerides values (Hu apoAI transgenic mice; 100 mg/kg oral gavage daily for 7 days, serum, vehicle 60–80 mg/dl): 33 to 58 mg/dL; average total serum cholesterol values (Hu apoAI transgenic mice; 100 mg/kg oral gavage daily for 7 days, vehicle 140–180 mg/dl): 190 to 280 mg/dL; mean elevation of total serum cholesterol (Hu apoAI transgenic mice; [5]): 41%; mean percent increase of HDLc (Hu apoAI transgenic mice; [5]): 48%; mean reduction of triglycerides (Hu apoAI transgenic mice; [5]): 37%
